From patent EP0106486A2, “Improvements in or relating to novel octahydrobenz(f)isoquinolines” (ELI LILLY AND COMPANY, priority 1982, dated 1984)
Where a name gives a salt, the structure may show the parent alone. Read-outs that look alike come from different tables or passages of the source.

Test system: Cox standard strain albino male mice
Experiment: mouse writhing assay (acetic acid-induced writhing)
Assay type: in vivo
Conditions: dose required to inhibit induced writhing by fifty percent, 5 mice per group
Excerpt: The analgesic activity of a number of compounds provided by this invention has been determined in the standard rat-tail jerk assay and the mouse writhing assay. Writhing, characterized by contraction of the abdominal musculature, extension of the hind- legs, and rotation of the trunk, was induced in Cox standard strain albino male mice. The mice, weighing 18-24 grams, were fasted overnight and given the test compound by gavage in an acacia suspension (5%) sixty minutes before writhing was induced by the intraperitoneal administration of acetic acid (0.60 percent). Each treatment group consisted of 5 mice. The total number of writhes for the treatment group was determined during a 10-minute observation starting 5 minutes after acetic acid administration. […] The results in the mouse writhing assay are presented as the effective dose in mg./kg. of the tested compound required to inhibit induced writhing in the test animals by fifty percent (ED50). Results are presented in Column II for both subcutaneous (s.c.) and oral (p.o.) administration of the test compound as compared to the reference compound meperidine.

[1] = 1 h, oral (p.o.) administration, acacia suspension (5%), sixty minutes before i.p. acetic acid (0.60 percent), read-out: Mouse Writhing ED50 p.o.
[2] = sc, subcutaneous (s.c.) administration, writhing induced by i.p. acetic acid (0.60 percent), read-out: Mouse Writhing ED50 s.c.

With `CCC[C@]12CCN(CC3CC3)C[C@H]1CCc1ccc(O)cc12` (relative stereo) [Example 13, cis-1,2,3,4,4a,5,6,10b-octahydro-3-cyclopropylmethyl-10b-propylbenz[f]isoquinolin-9-ol] the ED50 [1] was 73 mg/kg and the ED50 [2] was 34 mg/kg.

For `CCOC(=O)C1(c2ccccc2)CCN(C)CC1` [Meperidine, reference compound], the ED50 [1] was 21 mg/kg and the ED50 [2] was 2.8 mg/kg.

Compound `CCC[C@]12CCNC[C@H]1CCc1ccc(OC)cc12.Cl` (relative stereo) [Example 6, cis-1,2,3,4,4a,5,6,10b-octahydro-9-methoxy-10b-propylbenz[f]isoquinoline hydrochloride] has an ED50 [1] greater than 80 mg/kg and an ED50 [2] greater than 80 mg/kg.

Compound `CCC[C@]12CCN(C)C[C@H]1CCc1ccc(OC)cc12.Cl` (relative stereo) [Example 2, cis-1,2,3,4,4a,5,6,10b-octahydro-3-methyl-9-methoxy-10b-propylbenz[f]isoquinoline hydrochloride] has an ED50 [1] of 11 mg/kg and an ED50 [2] of 10 mg/kg.

Work on `C[C@@]12CCN(CCc3ccccc3)C[C@@H]1CCc1ccc(O)cc12` (relative stereo) [Example 10, cis-1,2,3,4,4a,5,6,10b-octahydro-3-(2-phenylethyl)-10b-methylbenz[f]isoquinolin-9-ol] yielded an ED50 [1] of 38.2 mg/kg and an ED50 [2] of 5.2 mg/kg.

With `CCC[C@]12CCNC[C@H]1CCc1ccc(O)cc12` (relative stereo) [Example 11, cis-1,2,3,4,4a,5,6,10b-octahydro-10b-propylbenz[f]isoquinolin-9-ol] the ED50 [1] was greater than 80 mg/kg and the ED50 [2] was 62 mg/kg.

Work on `C=CCN1CC[C@]2(C)c3cc(O)ccc3CC[C@@H]2C1` (relative stereo) [Example 8, cis-1,2,3,4,4a,5,6,10b-octahydro-3-(2-propenyl)-10b-methylbenz[f]isoquinolin-9-ol] yielded an ED50 [1] greater than 80 mg/kg and an ED50 [2] of 15 mg/kg.

With `C=CCN1CC[C@]2(CCC)c3cc(O)ccc3CC[C@@H]2C1` (relative stereo) [Example 12, cis-1,2,3,4,4a,5,6,10b-octahydro-3-(2-propenyl)-10b-propylbenz[f]isoquinolin-9-ol] the ED50 [1] was 45 mg/kg and the ED50 [2] was 12 mg/kg.

`COc1ccc2c(c1)[C@]1(C)CCNC[C@@H]1CC2` [Example 5, cis-1,2,3,4,4a,5,6,10b-octahydro-9-methoxy-LOb-methylbenz[f]isoquinoline hydrochloride] was tested, and the ED50 [1] was 80 mg/kg and the ED50 [2] was 62 mg/kg.

Work on `CCC[C@]12CCN(CCc3ccccc3)C[C@H]1CCc1ccc(O)cc12` (relative stereo) [Example 14, cis-1,2,3,4,4a,5,6,10b-octahydro-3-(2-phenylethyl)-10b-propylbenz[f]isoquinolin-9-ol] yielded an ED50 [1] greater than 80 mg/kg and an ED50 [2] of 78 mg/kg.

`COc1ccc2c(c1)[C@]1(C)CCN(C)C[C@@H]1CC2` [Example 1, cis-1,2,3,4,4a,5,6,lOb-octahydro-3,lOb-dimethyl-9-methoxybenz[f]isoquinoline hydrochloride] showed an ED50 [1] of 15 mg/kg and an ED50 [2] of 10 mg/kg.

`CCC[C@@]12CCN(C)C[C@@H]1CCc1ccc(O)cc12` [Example 4, cis-1,2,3,4,4a,5,6,1Ob-octahydro-3-methyl-10b-propylbenz[f]isoquinolin-9-ol hydrochloride] was tested, and the ED50 [1] was 13 mg/kg and the ED50 [2] was 4.5 mg/kg.

Work on `C[C@]12CCN(CC3CC3)C[C@H]1CCc1ccc(O)cc12` (relative stereo) [Example 9, cis-1,2,3,4,4a,5,6,10b-octahydro-3-(cyclopropylmethyl)-10b-methylbenz[f]isoquinolin-9-ol] yielded an ED50 [1] greater than 80 mg/kg and an ED50 [2] of 32 mg/kg.

In the case of `CN1CC[C@]2(C)c3cc(O)ccc3CC[C@@H]2C1` (relative stereo) [Example 3, cis-1,2,3,4,4a,5,6,10b-octahydro-3,10b-di-methylbenz[f]isoquinolin-9-ol], the ED50 [1] is reported as 7.2 mg/kg and the ED50 [2] is reported as 2.3 mg/kg.

`C[C@@]12CCNC[C@@H]1CCc1ccc(O)cc12` [Example 7, cis-l,2,3,4,4a,5,6,10b-octahydro-10b-methylbenz[f]isoquinolin-9-ol] showed an ED50 [1] greater than 80 mg/kg and an ED50 [2] of 80 mg/kg.
